The results in this text go back to US7196110B2, “N-substituted tricyclic 3-aminopyrazoles as inhibitors for the treatment of cell proliferative disorders” (Janssen Phamaceutica N.V., priority 2002, dated 2007).

Read-outs that look alike come from different tables or passages of the source.

For the assay, the target named is T1, PDGF-receptor beta enzyme comprising the tyrosine kinase domain (Homo sapiens, UniProt P09619).
T1 construct: from amino acid 545 to 1106 of GenBank Access NO: AAA36427
T1 sequence (P09619 545-1106): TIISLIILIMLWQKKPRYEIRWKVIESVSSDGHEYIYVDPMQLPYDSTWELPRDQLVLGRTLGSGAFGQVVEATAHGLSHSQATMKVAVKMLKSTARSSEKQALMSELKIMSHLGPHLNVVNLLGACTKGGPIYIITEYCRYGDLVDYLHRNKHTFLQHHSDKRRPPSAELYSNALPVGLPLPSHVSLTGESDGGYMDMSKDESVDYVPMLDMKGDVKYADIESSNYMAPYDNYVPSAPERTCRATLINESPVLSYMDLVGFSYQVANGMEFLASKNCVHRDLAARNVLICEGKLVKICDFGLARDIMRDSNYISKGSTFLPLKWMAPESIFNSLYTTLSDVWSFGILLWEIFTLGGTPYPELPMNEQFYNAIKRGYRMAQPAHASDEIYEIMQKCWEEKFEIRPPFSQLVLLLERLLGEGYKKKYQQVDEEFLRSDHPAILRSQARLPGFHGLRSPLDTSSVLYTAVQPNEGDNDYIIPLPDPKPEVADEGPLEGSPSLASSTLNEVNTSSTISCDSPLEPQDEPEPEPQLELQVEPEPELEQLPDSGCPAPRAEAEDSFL
The assay is described as follows: Inhibition of PDGF-receptor kinase activity (cell-free, PLC1 peptide, 33P Flashplate). Type of assay: biochemical. As to conditions: for inhibition at 10 µM: read-out: Percent Inhibition @ 10 uM. The method in brief: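 The IC50 is the inhibitor level halving kinase activity relative to inhibitor-free wells, measured as 33P captured on a streptavidin-bound biotin-PLC1 peptide. The reaction ran 60 min at 30 °C in pH 8 Tris buffer with 1 mM DTT, 5 μM ATP and the 545–1106 kinase-domain enzyme.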

The mark [1] stands for this setting: PDGF-R kinase activity, compound at 10 uM.
Where [2] appears, read: PDGF-R kinase activity, read-out: IC50.

As to `FC(F)(F)c1cc(Nc2[nH]nc3c2Cc2cc(Cl)ccc2-3)cc(C(F)(F)F)c1` [Compound 195, (3,5-Bis-trifluoromethyl-phenyl)-(6-chloro-2,4-dihydro-indeno[1,2-c]pyrazol-3-yl)-amine], the inhibition at 10 µM under setting [1] was determined as 76%. Besides, the IC50 under setting [2] worked out at 2.28 µM.

For `CCOC(=O)Cn1nc2c(c1Nc1cccc(F)c1)Cc1cc(OC)c(OC)cc1-2` [Compound 510, [3-(3-Fluoro-phenylamino)-6,7-dimethoxy-4H-indeno[1,2-c]pyrazol-2-yl]-acetic acid ethyl ester], under setting [1], the inhibition at 10 µM came out at 57%. Also, under setting [2], the IC50 amounted to 26.6 µM.

On to `COc1cc2c(cc1OC)-c1c(c(Nc3cccc(F)c3)nn1C(=O)CC(=O)N1CCCC1)C2` [Compound 536, 1-[3-(3-Fluoro-phenylamino)-6,7-dimethoxy-4H-indeno[1,2-c]pyrazol-1-yl]-3-pyrrolidin-1-yl-propane-1,3-dione], for which the inhibition at 10 µM under setting [1] was 88%. Also, under setting [2], the IC50 worked out at 0.436 µM.

On to `Fc1ccc2c(c1)Cc1c-2n[nH]c1Nc1cc(F)ccc1F` [Compound 236, (2,5-Difluoro-phenyl)-(6-fluoro-2,4-dihydro-indeno[1,2-c]pyrazol-3-yl)-amine], for which, under setting [1], the inhibition at 10 µM was found to be 82%. Moreover, under setting [2], the IC50 was 0.005 µM.

Consider `COc1cc2c(cc1OC)-c1c(c(Nc3cccc(F)c3)nn1C(=O)NCCOCCOCCO)C2` [Compound 544, 3-(3-Fluoro-phenylamino)-6,7-dimethoxy-4H-indeno[1,2-c]pyrazole-1-carboxylic acid {2-[2-(2-hydroxy-ethoxy)-ethoxy]-ethyl}-amide], for which the inhibition at 10 µM under setting [1] turned out to be 60%.

As for `COc1cc2c(cc1OC)-c1n[nH]c(N3CCc4ccccc43)c1C2` [Compound 566, 3-(2,3-Dihydro-indol-1-yl)-6,7-dimethoxy-2,4-dihydro-indeno[1,2-c]pyrazole], the inhibition at 10 µM under setting [1] came to 54%.

In the case of `COc1cc2c(cc1OC)-c1n[nH]c(Nc3cc(Cl)cc(Cl)c3)c1C2` [Compound 19, (3,5-Dichloro-phenyl)-(6,7-dimethoxy-2,4-dihydro-indeno[1,2-c]pyrazol-3-yl)-amine], the inhibition at 10 µM under setting [1] is 91%. Moreover, the IC50 under setting [2] was 0.174 µM.

In the case of `Clc1cccc(Nc2[nH]nc3c2Cc2sccc2-3)c1` [Compound 403, (3-Chloro-phenyl)-(5,7-dihydro-1-thia-4,5-diaza-cyclopenta[a]pentalen-6-yl)-amine], under setting [1], the inhibition at 10 µM is 96%. Also, under setting [2], the IC50 came out at 0.0859 µM.

As to `Fc1ccc(C(F)(F)F)cc1Nc1[nH]nc2c1Cc1ccccc1-2` [Compound 340, (2,4-Dihydro-indeno[1,2-c]pyrazol-3-yl)-(2-fluoro-5-trifluoromethyl-phenyl)-amine], the inhibition at 10 µM under setting [1] is 92.5%. Besides, the IC50 under setting [2] was 0.105 µM.

On to `COc1cc2c(cc1OC)C(C)c1c-2n[nH]c1NCc1cccc(Cl)c1` (stereo not shown) [Compound 333, (3-Chloro-benzyl)-(6,7-dimethoxy-4-methyl-2,4-dihydro-indeno[1,2-c]pyrazol-3-yl)-amine], for which the inhibition at 10 µM under setting [1] was found to be 73.5%. Moreover, the IC50 under setting [2] amounted to 2.55 µM.

`Fc1cccc(Nc2[nH]nc3c2Cc2cc(F)ccc2-3)c1` [Compound 235, (6-Fluoro-2,4-dihydro-indeno[1,2-c]pyrazol-3-yl)-(3-fluoro-phenyl)-amine]: the inhibition at 10 µM under setting [1] turned out to be 86%. Moreover, under setting [2], the IC50 came to 0.211 µM.

Consider `Cc1ccc(Cl)cc1Nc1[nH]nc2c1Cc1ccccc1-2` [Compound 338, (5-Chloro-2-methyl-phenyl)-(2,4-dihydro-indeno[1,2-c]pyrazol-3-yl)-amine], for which the inhibition at 10 µM under setting [1] was determined as 78.5%. For the same compound, the IC50 under setting [2] came out at 0.451 µM.

Regarding `COc1cc2c(cc1OC)-c1c(c(Nc3cccc(F)c3)nn1C)C2` [Compound 609], the inhibition at 10 µM under setting [1] turned out to be 84%. Further, the IC50 (read-out: IC50 (μM) on PDGF-R kinase activity) is 4.68 µM.

Regarding `COCCCOc1cc2c(cc1OC)-c1n[nH]c(Nc3cccc(OC)c3)c1C2` [Compound 244, [7-Methoxy-6-(3-methoxy-propoxy)-2,4-dihydro-indeno[1,2-c]pyrazol-3-yl]-(3-methoxy-phenyl)-amine], under setting [1], the inhibition at 10 µM is 101%. Besides, the IC50 under setting [2] is 0.0002 µM.

Turning to `COc1cc2c(cc1OC)-c1n[nH]c(Nc3ccc(C(F)(F)F)cc3)c1C2` [Compound 25, (6,7-Dimethoxy-2,4-dihydro-indeno[1,2-c]pyrazol-3-yl)-(4-trifluoromethyl-phenyl)-amine], under setting [1], the inhibition at 10 µM turned out to be 62%. The IC50 under setting [2] was found to be 4.77 µM.

Regarding `COc1cccc(Nc2[nH]nc3c2Cc2c(OCCCN(C)C)cccc2-3)c1` [Compound 74, [5-(3-Dimethylamino-propoxy)-2,4-dihydro-indeno[1,2-c]pyrazol-3-yl]-(3-methoxy-phenyl)-amine], the inhibition at 10 µM under setting [1] amounted to 102%. The IC50 under setting [2] is 0.424 µM.

As to `COc1cc2c(cc1OC)-c1n[nH]c(Nc3ccc(Br)cc3)c1C2` [Compound 45, (4-Bromo-phenyl)-(6,7-dimethoxy-2,4-dihydro-indeno[1,2-c]pyrazol-3-yl)-amine], the inhibition at 10 µM under setting [1] was 86%. Further, the 50% inhibitory concentration (IC50) under setting [2] is 2.16 µM.

Consider `CN(C)CCCOc1ccc2c(c1)Cc1c-2n[nH]c1Nc1ccc(F)cc1` [Compound 159, [6-(3-Dimethylamino-propoxy)-2,4-dihydro-indeno[1,2-c]pyrazol-3-yl]-(4-fluoro-phenyl)-amine], for which the inhibition at 10 µM under setting [1] came out at 92.5%. Under setting [2], the IC50 was 0.0989 µM.

On to `Cc1ccc2c(c1)-c1n[nH]c(NCc3cc(Cl)cc(Cl)c3)c1C2` [Compound 313, (3,5-Dichloro-benzyl)-(7-methyl-2,4-dihydro-indeno[1,2-c]pyrazol-3-yl)-amine], for which the inhibition at 10 µM under setting [1] was determined as 62.5%. Further, the IC50 under setting [2] turned out to be 3.5 µM.

`CCOc1cccc(Nc2[nH]nc3c2C(C)c2cc(OC)c(OC)cc2-3)c1` (single isomer, unassigned) [Compound 569, (6,7-Dimethoxy-4-methyl-2,4-dihydro-indeno[1,2-c]pyrazol-3-yl)-(3-ethoxy-phenyl)-amine]: the “Percent Inhibition @ 10 uM” value (PDGF-R kinase activity, compound at 10 uM, 10 µM) was determined as 64%. Moreover, the IC50 under setting [2] came to 5.1 µM.

For `C=C(C)C(=O)OCCNC(=O)n1nc(Nc2cccc(F)c2)c2c1-c1cc(OC)c(OC)cc1C2` [Compound 527, 2-Methyl-acrylic acid 2-{[3-(3-fluoro-phenylamino)-6,7-dimethoxy-4H-indeno[1,2-c]pyrazole-1-carbonyl]-amino}-ethyl ester], the inhibition at 10 µM under setting [1] is 46.5%. Further, under setting [2], the IC50 stood at 17.5 µM.

Turning to `COc1cc(Nc2[nH]nc3c2Cc2c(OC)cccc2-3)cc(C(F)(F)F)c1` [Compound 417, (5-Methoxy-2,4-dihydro-indeno[1,2-c]pyrazol-3-yl)-(3-methoxy-5-trifluoromethyl-phenyl)-amine], under setting [1], the inhibition at 10 µM came out at 27.5%. In addition, the IC50 under setting [2] came to 12.2 µM.

As for `CCOC(=O)Cn1nc(Nc2cccc(F)c2)c2c1-c1cc(OC)c(OC)cc1C2` [Compound 511, [3-(3-Fluoro-phenylamino)-6,7-dimethoxy-4H-indeno[1,2-c]pyrazol-1-yl]-acetic acid ethyl ester], under setting [1], the inhibition at 10 µM came out at 51%. In addition, the IC50 under setting [2] amounted to 12.5 µM.

Regarding `Cc1cccc2c1Cc1c-2n[nH]c1Nc1cccc(F)c1` [Compound 99, (3-Fluoro-phenyl)-(5-methyl-2,4-dihydro-indeno[1,2-c]pyrazol-3-yl)-amine], the inhibition at 10 µM under setting [1] was found to be 87.5%. Moreover, the IC50 under setting [2] was determined as 1.47 µM.

As for `CCOC(=O)c1cccc(Nc2[nH]nc3c2Cc2cc(OC)c(OC)cc2-3)c1` [Compound 210, 3-(6,7-Dimethoxy-2,4-dihydro-indeno[1,2-c]pyrazol-3-ylamino)-benzoic acid ethyl ester], the inhibition at 10 µM under setting [1] was 90%. In addition, the IC50 under setting [2] came out at 0.0672 µM.

For `COc1cc2c(cc1OC)-c1c(c(Nc3cccc(F)c3)nn1C(=O)Oc1ccc(Cl)cc1)C2` [Compound 501, 3-(3-Fluoro-phenylamino)-6,7-dimethoxy-4H-indeno[1,2-c]pyrazole-1-carboxylic acid 4-chloro-phenyl ester], the inhibition at 10 µM under setting [1] was determined as 90%. Further, the 50% inhibitory concentration (IC50) under setting [2] worked out at 0.096 µM.

For the compound `COc1cc2c(cc1OC)-c1n[nH]c(NCc3ccc(C)c(Cl)c3)c1C2` [Compound 273, (3-Chloro-4-methyl-benzyl)-(6,7-dimethoxy-2,4-dihydro-indeno[1,2-c]pyrazol-3-yl)-amine], under setting [1], the inhibition at 10 µM turned out to be 77%. Moreover, the IC50 under setting [2] was 1.58 µM.

Consider `COCCCOc1ccc2c(c1)Cc1c-2n[nH]c1Nc1cccc(OC)c1` [Compound 139, (3-Methoxy-phenyl)-[6-(3-methoxy-propoxy)-2,4-dihydro-indeno[1,2-c]pyrazol-3-yl]-amine], for which, under setting [1], the inhibition at 10 µM was 80%. Besides, the IC50 under setting [2] came to 0.0982 µM.

Consider `COc1cccc2c1Cc1c-2n[nH]c1Nc1ccc(F)cc1` [Compound 144, (4-Fluoro-phenyl)-(5-methoxy-2,4-dihydro-indeno[1,2-c]pyrazol-3-yl)-amine], for which the inhibition at 10 µM under setting [1] amounted to 96.5%. Besides, under setting [2], the IC50 is 0.836 µM.

Turning to `CC(C)Oc1cc2c(cc1OC(C)C)-c1n[nH]c(Nc3ccc(F)c(Cl)c3)c1C2` [Compound 167, (3-Chloro-4-fluoro-phenyl)-(6,7-diisopropoxy-2,4-dihydro-indeno[1,2-c]pyrazol-3-yl)-amine], the inhibition at 10 µM under setting [1] is 92%. Further, the IC50 under setting [2] amounted to 0.511 µM.

Take `CCC1c2cc(OC)c(OC)cc2-c2n[nH]c(Nc3cccc(F)c3)c21` (stereo not shown) [Compound 421, (4-Ethyl-6,7-dimethoxy-2,4-dihydro-indeno[1,2-c]pyrazol-3-yl)-(3-fluoro-phenyl)-amine]: the inhibition at 10 µM under setting [1] came to 100%. In addition, the IC50 under setting [2] came to 0.0822 µM.

Regarding `COc1cc2c(cc1OC)C(c1ccccc1)c1c-2n[nH]c1Nc1cccc(F)c1` (stereo not shown) [Compound 302, (6,7-Dimethoxy-4-phenyl-2,4-dihydro-indeno[1,2-c]pyrazol-3-yl)-(3-fluoro-phenyl)-amine], under setting [1], the inhibition at 10 µM turned out to be 47%.
